# Assay results taken from patent US5486505A, “Polypeptide compounds having growth hormone releasing activity” (Polygen Holding Corporation, priority 1992, dated 1996).
# Tested on: growth hormone (GH) release
# Test: In vivo GH release in pentobarbital anesthetized rats (serum GH by RIA)
# Design: species or system immature female Sprague-Dawley rats
# Settings: Table 4, control GH 181 ± 69
# Description: Immature female Sprague-Dawley rats were obtained from the Charles River Laboratories (Wilmington, Mass.). After arrival they were housed at 25° C. with a 14:10 hour light:dark cycle. Water and Purina rat chow were available ad libitum. Pups were kept with their mothers until 21 days of age.
# Twenty-six day old rats, six rats per treatment group, were anesthetized interperitoneally with 50 mg/Kg of pentobarbital 20 minutes prior to i. v. treatment with peptide. Normal saline with 0.1% gelatin was the vehicle for intravenous (i. v.) injections of the peptides. The anesthetized rats, weighing 55-65 grams, were injected i. v. with the quantity of growth hormone releasing compounds indicated in Tables 3 and 4. Injection was made as a 0.2 mL solution into the jugular vein.
# All animals were sacrificed by guillotine 10 minutes after the final test injection (see Tables 3 and 4). Trunk blood for the determination of blood GH levels was collected following decapitation. After allowing the blood to clot, it was centrifuged and the serum was separated from the clot. […]
# The mixed reagents are then typically incubated at room temperature (about 25° C.) for about 24 hours prior to addition of a second antibody (e.g., goat or rabbit anti-monkey gamma globulin serum) which binds to and causes precipitation of the complexed growth hormone antiserum. Precipitated contents of the RIA tubes are then analyzed for the number of counts in a specified period of time in a gamma scintillation counter. […] GH levels of unknowns are then determined by reference to the standard curve.
# Serum GH was measured by RIA with reagents provided by the National Hormone and Pituitary Program.
# Serum levels in Tables 3 and 4 are recorded in ng/mL in terms of the rat GH standard of 0.61 International Units/mg (IU/mg). Data is recorded as the mean +/- standard error of the mean (SEM). […]
substance,measurement,setting,value
His--DCys(SMe)--Ala--Trp--DPhe--Lys--NH2,GH Released,total dose 1.0 μg i.v.,193 ± 28 ng/mL
same,GH Released,total dose 3.0 μg i.v.,180 ± 34 ng/mL
same,GH Released,total dose .3 μg i.v.,178 ± 28 ng/mL
